Assay results published in ChEMBL document CHEMBL3137667, “[Drug-induced liver injury; fourteenth updated edition of the bibliographic database of liver injuries and related drugs]” (Gastroenterol Clin Biol, 2004).

How the values were obtained:
[1] = Highest frequency of moderate liver toxicity observed during clinical trials, expressed as a percentage. [column '% BIOL' in source]; details: human
[2] = Highest frequency of acute liver toxicity observed during clinical trials, expressed as a percentage. [column '% AIGUE' in source]; details: human
[3] = Times to onset, minimal and maximal, observed in the indexed observations. [column 'DELAI' in source]; details: human
[4] = human, serum
[5] = human, serum; remark: listed apart in the source
[6] = human
[7] = human; remark: listed apart in the source
[8] = human; remark: listed apart in the source
[9] = human, serum, 4383 h
[10] = human; remark: listed apart in the source
[11] = human; remark: listed apart in the source
[12] = human; remark: listed apart in the source
[13] = human; remark: listed apart in the source
[14] = human; remark: listed apart in the source
[15] = human; remark: listed apart in the source
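Wherever Hepatotoxicity (association with vascular disease) is given: count of indexed literature references reporting vascular liver injury in humans, e.g. peliosis hepatitis, hepatic veno-occlusive disease or Budd-Chiari syndrome.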
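Wherever Hepatotoxicity (benign tumour) is given: value is a count of indexed literature references citing a benign tumour confirmed by histopathology.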
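Wherever Hepatotoxicity (choleostasis) is given: human cholestatic liver injury, shown by histopathology or by peak ALT or AST elevation over alkaline phosphatase ratio below 2, value counts indexed literature reports.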
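Wherever Hepatotoxicity (chronic liver disease) is given: chronic liver injury confirmed by histopathology or persistently raised serum aminotransferase activity beyond 6 months, value given as the count of indexed literature references.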
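Wherever Hepatotoxicity (cirrhosis) is given: value is a count of indexed literature references reporting cirrhosis confirmed by histopathology.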
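Wherever Hepatotoxicity (cytolytic) is given: human cytolytic liver injury, shown by histopathology or by a ratio above 5 of peak ALT or AST elevation to alkaline phosphatase elevation, value counts indexed references.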
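Wherever Hepatotoxicity (granulomatous hepatitis) is given: value is a count of indexed literature references reporting granulomatous liver disease confirmed by histopathology.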
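Wherever Hepatotoxicity (malignant tumour) is given: malignant tumour confirmed by histopathology, value gives the count of indexed literature references reporting it.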
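Wherever Hepatotoxicity (severe hepatitis) is given: human clinical data: severe hepatitis, meaning potentially life-threatening liver failure or clinically observed cases, the value counts how many indexed literature references report it.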
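Wherever Hepatotoxicity (steatosis) is given: steatosis confirmed by histopathology, value is the count of indexed references.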

Structure (SMILES) | Hepatotoxicity (moderate) [1] [%] | Hepatotoxicity (acute) [2] [%] | Hepatotoxicity (time to onset) [3] | Hepatotoxicity (moderate) [4] | Hepatotoxicity (acute) [5] | Hepatotoxicity (cytolytic) [6] | Hepatotoxicity (choleostasis) [7] | Hepatotoxicity (severe hepatitis) [8] | Hepatotoxicity (chronic liver disease) [9] | Hepatotoxicity (cirrhosis) [10] | Hepatotoxicity (granulomatous hepatitis) [11] | Hepatotoxicity (association with vascular disease) [12] | Hepatotoxicity (steatosis) [13] | Hepatotoxicity (malignant tumour) [14] | Hepatotoxicity (benign tumour) [15] | also measured
C=C1c2cccc(O)c2C(=O)C2=C(O)[C@]3(O)C(=O)C(C(N)=O)=C(O)[C@@H](N(C)C)[C@@H]3[C@@H](O)[C@H]12 [METHACYCLINE] | 0 | 0 | 7 months - 1 year | 0 | 1 | 1 | 0 | 0 | 0 | 0 | 0 | 0 | 0 | 0 | 0 | 
COc1cccc(OC)c1C(=O)N[C@@H]1C(=O)N2[C@@H]1SC(C)(C)[C@@H]2C(=O)O [METHICILLIN] | 18.7 | 0 | 3 days - 3 weeks | 1 | 0 | 0 | 0 | 0 | 0 | 0 | 0 | 0 | 0 | 0 | 0 | 
CC[C@@H](CO)NC(=O)[C@@H]1C=C2c3cccc4[nH]cc(c34)C[C@H]2N(C)C1 [METHYLERGONOVINE] | 0 | 0 | 3 h | 1 | 0 | 0 | 0 | 0 | 0 | 0 | 0 | 0 | 0 | 0 | 0 | 
CC[C@@H](CO)NC(=O)[C@@H]1C=C2c3cccc4c3c(cn4C)C[C@H]2N(C)C1 [METHYSERGIDE] | 0 | 0 | 5 years | 1 | 0 | 0 | 0 | 0 | 0 | 0 | 0 | 0 | 0 | 0 | 0 | 
Cc1ccc2c(c1)C(N1CCN(C)CC1)=Nc1ccccc1S2 [METIAPINE] | 0 | 0 | 2 weeks - 2 months | 2 | 1 | 1 | 0 | 0 | 0 | 0 | 0 | 0 | 0 | 0 | 0 | 
CCN(CC)CCNC(=O)c1cc(Cl)c(N)cc1OC [METOCLOPRAMIDE] | 6 | 0 | 2 days - 4 months | 2 | 1 | 1 | 0 | 0 | 0 | 0 | 0 | 1 | 0 | 0 | 0 | 
Cc1ccccc1N1C(=O)c2cc(S(N)(=O)=O)c(Cl)cc2NC1C (stereo not given) [METOLAZONE] | 0 | 0 | 8 days - 3 months | 0 | 2 | 0 | 1 | 1 | 0 | 0 | 1 | 0 | 0 | 0 | 0 | 
CS(=O)(=O)c1ccc2c(c1)N(CCCN1CCC(C(N)=O)CC1)c1ccccc1S2 [METOPIMAZINE] | 0 | 0 | 1 month | 0 | 1 | 1 | 1 | 0 | 0 | 0 | 0 | 0 | 0 | 0 | 0 | 
CC1(C)S[C@@H]2[C@H](NC(=O)[C@H](NC(=O)N3CCN(S(C)(=O)=O)C3=O)c3ccccc3)C(=O)N2[C@H]1C(=O)O [MEZLOCILLIN] |  |  | 2 weeks - 3 weeks | 6 | 1 |  |  |  | 0 | 0 |  | 0 | 0 | 0 | 0 | Hepatotoxicity (moderate) ([1]; Liver): 25%; Hepatotoxicity (acute) ([2]; Liver): 0%; Hepatotoxicity (cytolytic) ([6]; Liver): 0; Hepatotoxicity (choleostasis) ([7]; Liver): 1; Hepatotoxicity (severe hepatitis) ([8]; Liver): 0; Hepatotoxicity (granulomatous hepatitis) ([11]; Liver): 0
CCC(=O)O[C@@H]1CC(=O)O[C@H](C)C/C=C/C=C/[C@H](O)[C@H](C)C[C@H](CC=O)[C@H](O[C@@H]2O[C@H](C)[C@@H](O[C@H]3C[C@@](C)(O)[C@@H](OC(=O)CC)[C@H](C)O3)[C@H](N(C)C)[C@H]2O)[C@H]1OC [MIDECAMYCIN] | 2.3 | 0 | 24 h | 3 | 1 | 1 | 0 | 1 | 0 | 0 | 0 | 0 | 0 | 0 | 0 | 
CC#C[C@]1(O)CC[C@H]2[C@@H]3CCC4=CC(=O)CCC4=C3[C@@H](c3ccc(N(C)C)cc3)C[C@@]21C [MIFEPRISTONE] | 14.3 | 0 | 3 months - 5 months | 2 | 1 | 1 | 0 | 0 | 0 | 0 | 0 | 0 | 0 | 0 | 0 | 
CCCCCNCC(N)=O [MILACEMIDE] | 70 | 0 | 3 weeks - 4 weeks | 3 | 1 | 1 | 1 | 0 | 0 | 0 | 0 | 0 | 0 | 0 | 0 | 
CCCCCCCCCCCCCCCCOP(=O)([O-])OCC[N+](C)(C)C [MILTEFOSINE] | 55 | 2.2 | 2 weeks | 5 | 3 | 3 | 0 | 0 | 0 | 0 | 0 | 0 | 0 | 0 | 0 | 
CN1CCN2c3ncccc3Cc3ccccc3C2C1 (stereo not given) [MIRTAZAPINE] | 1 | 0 | 1 year - 3 years | 2 | 1 | 1 | 0 | 1 | 0 | 0 | 0 | 0 | 1 | 0 | 0 | 
